# From patent US12180192B2, “Modulators of THR-β and methods of use thereof” (ALIGOS THERAPEUTICS, INC., priority 2019, dated 2024)
# Experiments:
# [1] = molecular target: T1, human thyroid receptor alpha ligand-binding domain (LBD) (Homo sapiens, UniProt P10827); test: TR-FRET thyroid receptor alpha coactivator assay (THR biochemical assay, Assay 1); conditions: for EC50: Table 4, THR-alpha, read-out: Activity category Assay 1 (EC50, THR-alpha agonist activity); for Emax: read-out: Activity category Assay 1 THRα (Emax)
# T1 construct: purchased Invitrogen
# From the text: (§1) The TR-FRET thyroid receptor beta coactivator assay was used with slight, optimized modifications of the manufacturer's protocol (Invitrogen). The assay uses a terbium-labeled anti-GST antibody, a glutathione-S-transferase (GST) tagged human thyroid receptor, beta or alpha, ligand-binding domain (LBD), and a fluorescein labeled SRC2-2 coactivator peptide. […] The energy transfer is detected as an increase in the fluorescence emission of the fluorescein acceptor, and a decrease in the fluorescence emission of the terbium donor. The assay is performed in a 384-well black plate in a final volume of 20 μL. Serial dilution of various test agonists was performed in DMSO (1% final DMSO concentration) and added to the test plate. Thyroid receptor beta LBD is added to the plate at a final concentration of 1 nM, followed by the mixture of the fluorescein labeled SRC2-2 coactivator peptide, and the terbium-labeled anti-GST antibody at final concentrations of 200 nM and 2 nM respectively. The assay is incubated for 1 hr at rt protected from light.
# [2] = molecular target: T2, human thyroid receptor beta ligand-binding domain (LBD) (Homo sapiens, UniProt P10828); test: TR-FRET thyroid receptor beta coactivator assay (THR biochemical assay, Assay 1); conditions: for EC50: THR-beta, TR-FRET coactivator assay, read-out: Activity category Assay 1 (EC50, THR-beta agonist); for Emax: read-out: Activity category Assay 1 THRβ (Emax)
# T2 construct: purchased Invitrogen
# T2 sequence (P10828 217-461 limits assumed): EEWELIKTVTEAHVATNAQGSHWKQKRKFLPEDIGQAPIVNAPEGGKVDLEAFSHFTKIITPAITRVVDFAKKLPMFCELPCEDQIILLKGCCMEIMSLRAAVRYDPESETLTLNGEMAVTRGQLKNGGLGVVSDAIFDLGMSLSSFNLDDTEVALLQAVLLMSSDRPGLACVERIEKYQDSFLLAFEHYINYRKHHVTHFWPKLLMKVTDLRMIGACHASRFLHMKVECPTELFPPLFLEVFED
# From the text: as §1
# T1 sequence (P10827 163-410 isoform P10827-2 limits assumed, other chains not shown): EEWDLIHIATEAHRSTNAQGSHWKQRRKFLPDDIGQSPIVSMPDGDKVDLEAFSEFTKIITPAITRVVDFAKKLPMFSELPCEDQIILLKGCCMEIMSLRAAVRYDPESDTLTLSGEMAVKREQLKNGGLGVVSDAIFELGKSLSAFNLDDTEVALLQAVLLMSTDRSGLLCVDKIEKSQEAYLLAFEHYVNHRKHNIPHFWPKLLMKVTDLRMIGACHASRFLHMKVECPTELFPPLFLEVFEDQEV
SMILES,EC50 [1],"Emax ([1]; Table 5, THRα)",EC50 [2],"Emax ([2]; Table 5, Assay 1, THRβ)","Activity category Assay 1 THRα (Emax) ([1]; Table 5, THRα)","Activity category Assay 1 THRβ (Emax) ([2]; Table 5, Assay 1, THRβ)"
"Nc1nn(-c2cc(Cl)c(Oc3n[nH]c(=O)cc3-c3cccc(Cl)c3)c(Cl)c2)c(=O)[nH]c1=O [Compound 68-A, 6-amino-2-(3,5-dichloro-4-((4-(3-chlorophenyl)-6-oxo-1,6-dihydropyridazin-3-yl)oxy)phenyl)-1,2,4-triazine-3,5(2H,4H)-dione]",> 25 µM,< 50%,> 25 µM,< 50%,,
N#Cc1nn(-c2cc(Cl)c(Oc3ccc4[nH]cc(C(=O)N5CCc6ccccc6C5)c4c3)c(Cl)c2)c(=O)[nH]c1=O [Compound 22],> 25 µM,< 50%,> 25 µM,< 50%,,
"CC(C)c1cc(Oc2c(Cl)cc(-n3nc(CS(C)(=O)=O)c(=O)[nH]c3=O)cc2Cl)n[nH]c1=O [Compound 34, 2-[3,5-dichloro-4-[(5-isopropyl-6-oxo-1H-pyridazin-3-yl)oxy]-phenyl]-6-(methanesulfonylmethyl)-4H-1,2,4-triazine-3,5-dione]",> 25 µM,< 50%,1 to 25 µM,< 50%,,
"Nc1nn(-c2cc(Cl)c(Oc3n[nH]c(=O)cc3-c3cccc(F)c3)c(Cl)c2)c(=O)[nH]c1=O [Compound 69-A, 6-amino-2-(3,5-dichloro-4-((4-(3-fluorophenyl)-6-oxo-1,6-dihydropyridazin-3-yl)oxy)phenyl)-1,2,4-triazine-3,5(2H,4H)-dione]",> 25 µM,< 50%,> 25 µM,< 50%,,
CC(C)[C@H](C)c1cc(Oc2c(Cl)cc(-n3nc(N)c(=O)[nH]c3=O)cc2Cl)n[nH]c1=O [Compound 170],> 25 µM,< 50%,0.05 to 0.25 µM,< 50%,,
Nc1nn(-c2cc(Cl)c(Oc3n[nH]c(=O)cc3-c3ccn4cncc4c3)c(Cl)c2)c(=O)[nH]c1=O [Compound 127],> 25 µM,< 50%,> 25 µM,< 50%,,
"Nc1nn(-c2cc(Cl)c(Oc3cc(C4Cc5ccccc54)c(=O)[nH]n3)c(Cl)c2)c(=O)[nH]c1=O (single isomer, unassigned) [Compound 166, 6-amino-2-(4-((5-(bicyclo[4.2.0]octa-1(6),2,4-trien-7-yl)-6-oxo-1,6-dihydropyridazin-3-yl)oxy)-3,5-dichlorophenyl)-1,2,4-triazine-3,5(2H,4H)-dione]",> 25 µM,,0.05 to 0.25 µM,,C (Emax<50%),C (Emax<50%)
"CC(c1ccccc1)c1c[nH]c2ccc(Oc3c(Cl)cc(-n4nc(C#N)c(=O)[nH]c4=O)cc3Cl)cc12 (centres unmarked) [Compound 6, 2-(3,5-dichloro-4-[[3-(1-phenylethyl)-1H-indol-5-yl]oxy]phenyl)-3,5-dioxo-4H-1,2,4-triazine-6-carbonitrile]",> 25 µM,< 50%,> 25 µM,< 50%,,
Nc1nn(-c2cc(Cl)c(Oc3n[nH]c(=O)cc3-c3cnc4ccccc4c3)c(Cl)c2)c(=O)[nH]c1=O [Compound 133],> 25 µM,< 50%,0.25 to 1 µM,< 50%,,
Cc1cc(-c2cc(=O)[nH]nc2Oc2c(Cl)cc(-n3ncc(=O)[nH]c3=O)cc2Cl)ccn1 [Compound 142],> 25 µM,< 50%,> 25 µM,< 50%,,
Nc1nn(-c2cc(Cl)c(Oc3cc(-c4ccc5nnccc5c4)c(=O)[nH]n3)c(Cl)c2)c(=O)[nH]c1=O [Compound 108],> 25 µM,< 50%,> 25 µM,< 50%,,
Cc1cccc(-c2cc(=O)[nH]nc2Oc2c(Cl)cc(-n3ncc(=O)[nH]c3=O)cc2Cl)c1 [Compound 140],> 25 µM,< 50%,> 25 µM,< 50%,,
O=c1cnn(-c2cc(Cl)c(Oc3cc(-c4ccc5sccc5c4)c(=O)[nH]n3)c(Cl)c2)c(=O)[nH]1 [Compound 135],> 25 µM,< 50%,> 25 µM,< 50%,,
Nc1nn(-c2cc(Cl)c(Oc3n[nH]c(=O)cc3-c3ccc4ccnn4c3)c(Cl)c2)c(=O)[nH]c1=O [Compound 123],> 25 µM,< 50%,> 25 µM,< 50%,,
Nc1nn(-c2cc(Cl)c(Oc3cc(-c4cnc5ccccc5c4)c(=O)[nH]n3)c(Cl)c2)c(=O)[nH]c1=O [Compound 132],> 25 µM,< 50%,> 25 µM,< 50%,,
Nc1nn(-c2cc(Cl)c(Oc3cc(-c4ccn5cncc5c4)c(=O)[nH]n3)c(Cl)c2)c(=O)[nH]c1=O [Compound 126],> 25 µM,< 50%,> 25 µM,< 50%,,
Nc1nn(-c2cc(Cl)c(Oc3n[nH]c(=O)cc3-c3ccn4nccc4c3)c(Cl)c2)c(=O)[nH]c1=O [Compound 125],> 25 µM,< 50%,1 to 25 µM,< 50%,,
"CCc1cccc(-c2cc(=O)[nH]nc2Oc2c(Cl)cc(-n3nc(N)c(=O)[nH]c3=O)cc2Cl)c1 [Compound 71-A, 6-Amino-2-(3,5-dichloro-4-((4-(3-ethylphenyl)-6-oxo-1,6-dihydropyridazin-3-yl)oxy)phenyl)-1,2,4-triazine-3,5(2H,4H)-dione]",> 25 µM,< 50%,> 25 µM,< 50%,,
"Cc1cccc(-c2cc(=O)[nH]nc2Oc2c(Cl)cc(-n3nc(N)c(=O)[nH]c3=O)cc2Cl)c1 [Compound 70-A, 6-amino-2-(3,5-dichloro-4-((6-oxo-4-(m-tolyl)-1,6-dihydropyridazin-3-yl)oxy)phenyl)-1,2,4-triazine-3,5(2H,4H)-dione]",> 25 µM,< 50%,> 25 µM,< 50%,,

# Next, values leading:
EC50 [1],"Emax ([1]; Table 5, THRα)",EC50 [2],"Emax ([2]; Table 5, Assay 1, THRβ)","Activity category Assay 1 THRα (Emax) ([1]; Table 5, THRα)","Activity category Assay 1 THRβ (Emax) ([2]; Table 5, Assay 1, THRβ)",SMILES
> 25 µM,< 50%,> 25 µM,< 50%,,,"CC(c1ccccc1)c1cc(Oc2c(Cl)cc(-n3nc(N)c(=O)[nH]c3=O)cc2Cl)n[nH]c1=O (single isomer, unassigned) [Compound 163, 6-Amino-2-(3,5-dichloro-4-((6-oxo-5-(1-phenylethyl)-1,6-dihydropyridazin-3-yl)oxy)phenyl)-1,2,4-triazine-3,5(2H,4H)-dione]"
< 0.05 µM,< 50%,< 0.05 µM,< 50%,,,"Cc1cc(-n2nc(C#N)c(=O)[nH]c2=O)cc(C)c1Cc1ccc2c(c1)C1(CCC1)C(=O)N2 [Compound 153, 2-(3,5-Dimethyl-4-((2′-oxospiro[cyclobutane-1,3′-indolin]-5′-yl)methyl)phenyl)-3,5-dioxo-2,3,4,5-tetrahydro-1,2,4-triazine-6-carbonitrile]"
1 to 25 µM,< 50%,1 to 25 µM,< 50%,,,Nc1nn(-c2cc(Cl)c(Oc3n[nH]c(=O)cc3-c3cc4ccccn4n3)c(Cl)c2)c(=O)[nH]c1=O [Compound 131]
1 to 25 µM,< 50%,> 25 µM,< 50%,,,Nc1nn(-c2cc(Cl)c(Oc3cc(-c4cc5ccccn5n4)c(=O)[nH]n3)c(Cl)c2)c(=O)[nH]c1=O [Compound 130]
1 to 25 µM,< 50%,1 to 25 µM,< 50%,,,N#C[C@@H]1CC[C@H]1c1cc(Oc2c(Cl)cc(-n3nc(N)c(=O)[nH]c3=O)cc2Cl)n[nH]c1=O (relative stereo) [Compound 105]
0.25 to 1 µM,< 50%,< 0.05 µM,< 50%,,,CC(C)[C@@H](C)c1cc(Oc2c(Cl)cc(-n3nc(N)c(=O)[nH]c3=O)cc2Cl)n[nH]c1=O [Compound 169]
0.05 to 0.25 µM,< 50%,< 0.05 µM,50 to 75%,,,"Cc1cc(-c2nn(C)c(=O)[nH]c2=O)cc(C)c1Cc1ccc2[nH]cc(C(C)C)c2n1 [Compound 162, 6-[4-[(3-isopropyl-1H-pyrrolo[3,2-b]pyridin-5-yl)methyl]-3,5-dimethyl-phenyl]-2-methyl-1,2,4-triazine-3,5-dione]"
0.25 to 1 µM,< 50%,< 0.05 µM,< 50%,,,"Nc1nn(-c2cc(Cl)c(Oc3cc(C4Cc5ccccc54)c(=O)[nH]n3)c(Cl)c2)c(=O)[nH]c1=O (single isomer, unassigned) [Compound 165, 6-amino-2-(4-((5-(bicyclo[4.2.0]octa-1(6),2,4-trien-7-yl)-6-oxo-1,6-dihydropyridazin-3-yl)oxy)-3,5-dichlorophenyl)-1,2,4-triazine-3,5(2H,4H)-dione]"
1 to 25 µM,< 50%,1 to 25 µM,< 50%,,,O=c1cc(-c2ccc3sccc3c2)c(Oc2c(Cl)cc(-n3ncc(=O)[nH]c3=O)cc2Cl)n[nH]1 [Compound 136]
1 to 25 µM,< 50%,1 to 25 µM,< 50%,,,CCn1nc(-c2cc(Cl)c(Oc3cc(C(C)C)c(=O)[nH]n3)c(Cl)c2)c(=O)[nH]c1=O [Compound 23]
